Assay results: ChEMBL document CHEMBL5634112, “Synthesis and biological evaluation of fluoroquinolones containing a pyridoxine derivatives moiety” (Eur J Med Chem, 2023)
≈ marks a conversion by molar mass, not a printed value.

How the values were obtained:
Staphylococcus aureus [1] = experiment: Antibacterial activity against clinical isolate Staphylococcus aureus 1812 assessed as reduction in microbial growth incubated for 24 hrs by broth microdilution method; type: functional
Bacillus subtilis = experiment: Antibacterial activity against Bacillus subtilis 168 assessed as reduction in microbial growth incubated for 24 hrs by broth microdilution method; type: functional
Staphylococcus aureus [2] = experiment: Antibacterial activity against methicillin sensitive Staphylococcus aureus ATCC 29213 assessed as reduction in microbial growth incubated for 24 hrs by broth microdilution method; type: functional
[3] = Cytotoxicity against human CHL assessed as reduction in cell viability incubated for 72 hrs by MTT assay; type: toxicity, cell-based; conditions: CHL cells
[4] = test system: Staphylococcus auricularis; experiment: Antibacterial activity against clinical isolate Staphylococcus auricularis NKC 7 assessed as reduction in microbial growth incubated for 24 hrs by broth microdilution method; type: functional
Escherichia coli [5] = experiment: Antibacterial activity against Escherichia coli ATCC 25922 assessed as reduction in microbial growth incubated for 24 hrs by broth microdilution method; type: functional
Enterococcus faecalis = experiment: Antibacterial activity against clinical isolate Enterococcus faecalis 1465 assessed as reduction in microbial growth incubated for 24 hrs by broth microdilution method; type: functional
Micrococcus luteus = experiment: Antibacterial activity against clinical isolate Micrococcus luteus assessed as reduction in microbial growth incubated for 24 hrs by broth microdilution method; type: functional
[6] = test system: Staphylococcus epidermidis; experiment: Antibacterial activity against clinical isolate Staphylococcus epidermidis assessed as reduction in microbial growth incubated for 24 hrs by broth microdilution method; type: functional
Pseudomonas aeruginosa [7] = experiment: Antibacterial activity against Pseudomonas aeruginosa ATCC 27853 assessed as reduction in microbial growth incubated for 24 hrs by broth microdilution method; type: functional
[8] = test system: Staphylococcus haemolyticus; experiment: Antibacterial activity against clinical isolate Staphylococcus haemolyticus NKC 31/2 assessed as reduction in microbial growth incubated for 24 hrs by broth microdilution method; type: functional
Pseudomonas aeruginosa [9] = experiment: Antibacterial activity against clinical isolate Pseudomonas aeruginosa NKC 17 assessed as reduction in microbial growth incubated for 24 hrs by broth microdilution method; type: functional
[10] = test system: Staphylococcus haemolyticus; experiment: Antibacterial activity against clinical isolate Staphylococcus haemolyticus 1464 assessed as reduction in microbial growth incubated for 24 hrs by broth microdilution method; type: functional
Klebsiella pneumoniae = experiment: Antibacterial activity against clinical isolate Klebsiella pneumoniae 1678 assessed as reduction in microbial growth incubated for 24 hrs by broth microdilution method; type: functional
[11] = Cytotoxicity against human HSF assessed as reduction in cell viability incubated for 72 hrs by MTT assay; type: toxicity, cell-based; conditions: HSF cells
[12] = test system: Staphylococcus epidermidis; experiment: Antibacterial activity against clinical isolate Staphylococcus epidermidis NKC 37/1 assessed as reduction in microbial growth incubated for 24 hrs by broth microdilution method; type: functional
[13] = Cytotoxicity against human MSC assessed as reduction in cell viability incubated for 72 hrs by MTT assay; type: toxicity, cell-based; conditions: MSC cells
Staphylococcus aureus [14] = experiment: Antibacterial activity against clinical isolate methicillin resistant Staphylococcus aureus 4771 assessed as reduction in microbial growth incubated for 24 hrs by broth microdilution method; type: functional
Salmonella typhimurium = experiment: Antibacterial activity against Salmonella typhimurium TA100 assessed as reduction in microbial growth incubated for 24 hrs by broth microdilution method; type: functional, Salmonella enterica subsp. enterica serovar Typhimurium; conditions: Salmonella enterica
Cedecea davisae = experiment: Antibacterial activity against clinical isolate Cedecea davisae 1813 assessed as reduction in microbial growth incubated for 24 hrs by broth microdilution method; type: functional
Escherichia coli [15] = experiment: Antibacterial activity against clinical isolate Escherichia coli NKC 1 assessed as reduction in microbial growth incubated for 24 hrs by broth microdilution method; type: functional
Klebsiella aerogenes = experiment: Antibacterial activity against clinical isolate Enterobacter aerogenes NKC 8 assessed as reduction in microbial growth incubated for 24 hrs by broth microdilution method; type: functional
Staphylococcus aureus [16] = experiment: Antibacterial activity against clinical isolate Staphylococcus aureus 4721 assessed as reduction in microbial growth incubated for 24 hrs by broth microdilution method; type: functional

Structure (SMILES) | MIC (Staphylococcus aureus [1]) | MIC (Bacillus subtilis) | MIC (Staphylococcus aureus [2]) | CC50 at 72 h [3] | MIC [4] | MIC (Escherichia coli [5]) | MIC (Enterococcus faecalis) | MIC (Micrococcus luteus) | MIC [6] | MIC (Pseudomonas aeruginosa [7]) | MIC [8] | MIC (Pseudomonas aeruginosa [9]) | MIC [10] | MIC (Klebsiella pneumoniae) | CC50 at 72 h [11] | MIC [12] | CC50 at 72 h [13] | MIC (Staphylococcus aureus [14]) | MIC (Salmonella typhimurium) | MIC (Cedecea davisae) | also measured
COc1c(N2C[C@@H]3CCCN(Cc4nc(C)c(O)c(CO)c4CO)[C@@H]3C2)c(F)cc2c(=O)c(C(=O)O)cn(C3CC3)c12.Cl | 0.5 µg/mL | 2 µg/mL | 2 µg/mL | 24.2 µg/mL | 0.03 µg/mL | > 64 µg/mL | 4 µg/mL | 2 µg/mL | 2 µg/mL | > 64 µg/mL | 8 µg/mL | 32 µg/mL | 0.5 µg/mL | 64 µg/mL | 33.9 µg/mL | 0.25 µg/mL | 31.7 µg/mL | 0.25 µg/mL | 2 µg/mL | 0.25 µg/mL | MIC (Escherichia coli [15]): 2 µg/mL; MIC (Klebsiella aerogenes): 4 µg/mL; MIC (Staphylococcus aureus [16]): 0.5 µg/mL
CCn1cc(C(=O)O)c(=O)c2cc(F)c(N3CCN(Cc4cnc(C)c5c4COCO5)CC3)cc21.Cl | 2 µg/mL | 2 µg/mL | 2 µg/mL | 9.78 µg/mL | 0.03 µg/mL | 4 µg/mL | 32 µg/mL | 4 µg/mL | 2 µg/mL | > 64 µg/mL | 8 µg/mL | 2 µg/mL | 1 µg/mL | 4 µg/mL | 23.4 µg/mL | 2 µg/mL | 21.2 µg/mL | 1 µg/mL | 2 µg/mL | 0.25 µg/mL | MIC (Escherichia coli [15]): 0.13 µg/mL; MIC (Klebsiella aerogenes): 1 µg/mL; MIC (Staphylococcus aureus [16]): 1 µg/mL
COc1c(N2C[C@@H]3CCCN(Cc4nc(C)c5c(c4CO)COC(C)(C)O5)[C@@H]3C2)c(F)cc2c(=O)c(C(=O)O)cn(C3CC3)c12 | 2 µg/mL | 2 µg/mL | 2 µg/mL | 6.41 µg/mL (≈ 10.3 µM) | 0.03 µg/mL | > 64 µg/mL | 16 µg/mL | 2 µg/mL | 4 µg/mL | > 64 µg/mL | 32 µg/mL | > 64 µg/mL | 1 µg/mL | 64 µg/mL | 11.3 µg/mL (≈ 18.1 µM) | 2 µg/mL | 7.26 µg/mL (≈ 11.7 µM) | 1 µg/mL | 2 µg/mL | 0.5 µg/mL | MIC (Escherichia coli [15]): 8 µg/mL; MIC (Klebsiella aerogenes): 16 µg/mL; MIC (Staphylococcus aureus [16]): 1 µg/mL
COc1c(N2C[C@@H]3CCCN(Cc4cnc(C)c(O)c4CO)[C@@H]3C2)c(F)cc2c(=O)c(C(=O)O)cn(C3CC3)c12.Cl | 0.25 µg/mL | 2 µg/mL | 2 µg/mL | 18.6 µg/mL | 0.03 µg/mL | > 64 µg/mL | 1 µg/mL | 4 µg/mL | 2 µg/mL | > 64 µg/mL | 8 µg/mL | 64 µg/mL | 0.13 µg/mL | > 64 µg/mL | 56.7 µg/mL | 0.06 µg/mL | 48.4 µg/mL | 0.13 µg/mL | 4 µg/mL | 0.13 µg/mL | MIC (Escherichia coli [15]): 4 µg/mL; MIC (Klebsiella aerogenes): 8 µg/mL; MIC (Staphylococcus aureus [16]): 0.13 µg/mL
COc1c(N2C[C@@H]3CCCN(Cc4c(CO)nc(C)c(O)c4CO)[C@@H]3C2)c(F)cc2c(=O)c(C(=O)O)cn(C3CC3)c12.Cl | 0.5 µg/mL | 2 µg/mL | 2 µg/mL | 17.6 µg/mL | 0.06 µg/mL | 2 µg/mL | 4 µg/mL | 2 µg/mL | 2 µg/mL | > 64 µg/mL | 8 µg/mL | 32 µg/mL | 0.25 µg/mL | 64 µg/mL | 35.2 µg/mL | 0.25 µg/mL | 20.6 µg/mL | 8 µg/mL | 2 µg/mL | 0.5 µg/mL | MIC (Escherichia coli [15]): 4 µg/mL; MIC (Klebsiella aerogenes): 8 µg/mL; MIC (Staphylococcus aureus [16]): 0.25 µg/mL
Cc1nc(CO)c(CN2CCN(c3cc4c(cc3F)c(=O)c(C(=O)O)cn4C3CC3)CC2)c(CO)c1O.Cl | 4 µg/mL | 4 µg/mL | 0.5 µg/mL | 31.8 µg/mL | 0.25 µg/mL | 64 µg/mL | 32 µg/mL | 2 µg/mL | 8 µg/mL | > 64 µg/mL | 16 µg/mL | 16 µg/mL | 4 µg/mL | 8 µg/mL | 38 µg/mL | 1 µg/mL | 52.6 µg/mL | 2 µg/mL | 4 µg/mL | 1 µg/mL | MIC (Escherichia coli [15]): 0.5 µg/mL; MIC (Klebsiella aerogenes): 2 µg/mL; MIC (Staphylococcus aureus [16]): 2 µg/mL
COc1c(N2C[C@@H]3CCCN(Cc4cnc(C)c5c4COC(C)(C)O5)[C@@H]3C2)c(F)cc2c(=O)c(C(=O)O)cn(C3CC3)c12 | 1 µg/mL | 2 µg/mL | 2 µg/mL | 2.85 µg/mL (≈ 4.81 µM) | 0.03 µg/mL | > 64 µg/mL | 32 µg/mL | 4 µg/mL | 2 µg/mL | > 64 µg/mL | 32 µg/mL | > 64 µg/mL | 0.5 µg/mL | 32 µg/mL | 3.44 µg/mL (≈ 5.8 µM) | 1 µg/mL | 3.84 µg/mL (≈ 6.48 µM) | 4 µg/mL | 4 µg/mL | 0.5 µg/mL | MIC (Escherichia coli [15]): 4 µg/mL; MIC (Klebsiella aerogenes): 64 µg/mL; MIC (Staphylococcus aureus [16]): 0.5 µg/mL
CCn1cc(C(=O)O)c(=O)c2cc(F)c(N3CCNCC3)cc21 [NORFLOXACIN] | 2 µg/mL | 1 µg/mL | 2 µg/mL | 38.1 µg/mL (≈ 119 µM) | 0.13 µg/mL | 1 µg/mL | > 64 µg/mL | 8 µg/mL | 1 µg/mL | 4 µg/mL | 8 µg/mL | 0.25 µg/mL | 2 µg/mL | 1 µg/mL | 38.1 µg/mL (≈ 119 µM) | 4 µg/mL | 29.3 µg/mL (≈ 91.9 µM) | 1 µg/mL | 1 µg/mL | 1 µg/mL | MIC (Escherichia coli [15]): 0.06 µg/mL; MIC (Klebsiella aerogenes): 1 µg/mL; MIC (Staphylococcus aureus [16]): 1 µg/mL
